Assays:
[1] = cited from earlier work
cytochrome c = test: Enzymatic NAD(P)H oxidation / cytochrome c reduction catalyzed by N2N1; assay type: biochemical; details: inhibitor 2 μM
Protocol: FIGS. 5A-5C provide graphs and schemes relating to the N2N1 mechanism of action. […] No specific substrate was added into reaction mix, therefore, it was concluded that reaction was driven by slow reduction of molecular oxygen dissolved into reaction buffer. The hypothetical reaction equation is shown below reaction plots. (B) The proposed molecular mechanism of possible substrate reduction catalyzed by N2N1. (C) Addition of peroxide or cytochrome c into reaction allowed us to identify cytochrome c as the most preferable substrate for the N2N1 driven enzymatic reaction. […] It was interesting to notice that addition of cytochrome c to non-enzymatic reaction reduced the reaction rate. […] The hypothetical reaction equation is show below the reaction plots.
FIGS. 6A-6B provide graphs showing the enzymatic reduction of cytochrome C catalyzed by N2N1 can utilize both NADH and NADPH. (A) The enzymatic electrons transfer from NADH to cytochrome c driven by N2N1 was monitored by decrease in absorption at 340 nm (NADH) and increase in absorption at 550 nm (cytochrome c). The absorbance spectrum was screened at the end of the reaction (˜1 hour). The hypothetical reaction equation is shown below the reaction plots. (B) The enzymatic electrons transfer from NADPH to cytochrome c driven by N2N1 was monitored by decrease in absorption at 340 nm (NADPH) and increase in absorption at 550 nm (cytochrome c). The hypothetical reaction equation is shown below the reaction plots.
To evaluate possible participation of mitochondrial NADH oxidoreductases, in particular Complex I and III, the […] was run in the presence of rotenone or antimycin A (2 μM). The acquired data allowed us to specify the most probable candidate that carry out the transfer electrons from NAD(P)H to cytochrome C driven by N2N1. The NQO1 protein would be the most likely candidate, while proteins from CYB5 family still cannot be ruled out.
Bonkowski et al., Nature reviews. Molecular cell biology 17, 679-690 (2016); Orr et al., Antioxidants & redox signaling 19, 788-803 (2013). It quite possible, that NAD(P)H oxidation catalyzed by N2N1 is performed by NADH:cytochrome b5 reductases (CYB5 . . . ) or NAD(P)H:quinone oxidoreductase (NQO1) reductase (FIG. 3C). The inventors found by RNA-seq analysis that fourteen genes from CYB5 family were expressed in normal fibroblast. NQO1 was also detected at the high level of expression. These reductases connect aerobic metabolism with aging by directed electron flow from NAD(P)H to oxygen, cytochrome C, and peroxide. Jimenez-Hidalgo et al., Aging cell 8, 140-151 (2009). […]

Compound: CO[C@H]1C[C@@H]2CC[C@@H](C)[C@@](O)(O2)C(=O)C(=O)N2CCCC[C@H]2C(=O)O[C@H]([C@H](C)C[C@@H]2CC[C@@H](O)[C@H](OC)C2)CC(=O)[C@H](C)/C=C(\C)[C@@H](O)[C@@H](OC)C(=O)[C@H](C)C[C@H](C)/C=C/C=C/C=C/1C [Rapamycin]
- water solubility [1]: poor

Compound: C=C(C)[C@H]1Cc2c(ccc3c2O[C@@H]2COc4cc(OC)c(OC)cc4[C@@H]2C3=O)O1 [rotenone, reference compound]
- suppression of enzymatic reduction of cytochrome c catalyzed by N2N1 (cytochrome c): did not suppress

Compound: antimycin A [reference compound]
- suppression of enzymatic reduction of cytochrome c catalyzed by N2N1 (cytochrome c): did not suppress

Reference: patent US11723907B2, “Anti-aging compounds” (THE CLEVELAND CLINIC FOUNDATION, priority 2017, dated 2023)
